Reference: patent US11753373B2, “Protease inhibitors as antivirals” (priority 2021, dated 2023)

Experiments:
[1] = assay type: in vitro ADME, Human; conditions: extraction ratio; for Liver Microsomal Stability (ER) Human: compound at 1 uM, human liver microsomes 0.5 mg/mL
[2] = in vivo; conditions: female, beagle, dog, po, 40 mg/kg
Procedure: Pharmacokinetics of test compounds was evaluated following an oral administration of a single dose (at 40 mg/kg) to female Beagle dogs.
Procedure: Test compounds were orally administered to beagle dogs (single dose). The target dose level for oral administration was 40 mg/kg. Blood samples were collected at pre-dose, and at 0.083, 0.25, 0.50, 1, 2, 4, 6, 8, and 24 hours post-dose. Concentrations of test compound were determined by an LC-MS/MS. Non-compartmental Pharmacokinetic parameters of test compounds were analyzed using Phoenix WinNonlin 8.3.
Animal Dosing: All animals were fasted ˜17-19 h prior to dosing and fed approximately 4 hours after dosing. […] The dogs were dosed at 10.0 ml/kg. The formulation volume of the test compound administered to each animal was calculated based on the body weight measured on the day of dosing.
Sample Collection and Analysis: Approximately 1 mL of blood was collected by jugular vein puncture into tubes containing EDTA-K2 anticoagulant. Plasma samples were harvested by centrifugation (2000 g for 10 minutes at 4° C. within 2 hours after collection) and stored at −80° C. until analysis. The analytical method for test compound involved protein precipitation by adding acetonitrile containing 1% FA and internal standard (A-1-a synthesized in house or Tolbutamide purchased from Sigma), and final analysis by LC-MS/MS. A standard curve was prepared using dog plasma for the test article. The calibration curve was linear over a concentration range of 1.0 to 1000 ng/mL.
(§1) Pharmacokinetic and Statistic Analysis: The reported plasma concentrations of test compounds were used to determine pharmacokinetic parameters, using a non-compartmental model for data analysis (Phoenix WinNonlin 8.3). The common pharmacokinetic parameters were calculated, whenever possible, from the plasma concentration-versus-time data. Nominal doses and sampling times were used, except where deviations were noted. […] BQL after Tmax would not participate in calculation of PK parameters.

[3] = in vivo; conditions: female, Balb/c, mouse, po, 40 mg/kg
Procedure: Pharmacokinetics of test compounds was evaluated following an oral administration of a single dose (at 40 mg/kg) to female Balb/c mice.
Procedure: Test compounds were administered to Balb/c mice (n=3 per sex per time point) by a single oral gavage. The target dose level for oral administration was 40 mg/kg. Blood samples were collected at pre-dose, and at 0.083, 0.25, 0.50, 1, 2, 4, 6, 8, and 12 hours post-dose. Concentrations of test compound were determined by an LC-MS/MS. Non-compartmental Pharmacokinetic parameters of test compounds were analyzed using Phoenix WinNonlin 8.3.
Animal Dosing: All animals were fasted overnight through approximately 4 hours post-dose. Tap water was provided to mice ad Libitum. The mice were dosed orally at 10.0 ml/kg. The formulation volume of the test compound administered to each animal was calculated based on the body weight measured on the day of dosing.
Sample Collection and Analysis: Approximately 0.20 mL of blood was collected via orbital sinus vein puncture into EDTA-K2 tubes. Plasma samples were harvested by centrifugation and stored at −80° C. until analysis. The analytical method for test compound involved protein precipitation by adding acetonitrile containing 1% FA and internal standard (A-1-a synthesized in house or Tolbutamide purchased from Sigma), and final analysis by LC-MS/MS. A standard curve was prepared using mouse plasma for the test compound. The calibration curve was linear over a concentration range of 1.0 to 1000 ng/mL.
as §1

[4] = system: SARS-CoV-2; assay: Anti-viral in vitro PRNT assay in Vero E6 cells; assay type: cell-based; conditions: Severe acute respiratory syndrome coronavirus 2, Vero C1008, 72 h; Vero E6 cells, 1000 pfu, 3 days, plaque reduction; read-out: anti-SARS-CoV2 (PRNT) in Vero E6 EC50
[5] = assay type: in vitro ADME; conditions: extraction ratio, compound at 1 uM; for Liver Microsomal Stability (ER) SD rat: SD rat liver microsomes 0.5 mg/mL; for Liver Microsomal Stability (ER) Beagle dog: beagle dog liver microsomes 0.5 mg/mL; for Liver Microsomal Stability (ER) Monkey: monkey liver microsomes 0.5 mg/mL; for Liver Microsomal Stability (ER) Mouse: mouse liver microsomes 0.5 mg/mL
[6] = system: SARS-CoV-2 Omicron; assay: FRNT assay in A549-hACE2 cells; assay type: cell-based; conditions: Severe acute respiratory syndrome coronavirus 2, 24 h
[7] = system: SARS-CoV-2 Omicron; assay: Virus release assay using EpiAirway; assay type: cell-based; conditions: Severe acute respiratory syndrome coronavirus 2
[8] = system: SARS-CoV-2 Omicron; assay: FRNT assay in Vero E6 cells; assay type: cell-based; conditions: Severe acute respiratory syndrome coronavirus 2, Vero C1008, 24 h
[9] = molecular target: SARS-CoV-2 M^pro (3CL protease) (Severe acute respiratory syndrome coronavirus 2 (2019-nCoV) (SARS-CoV-2), UniProt P0DTD1); assay type: biochemical; conditions: read-out: SARS-CoV-2M^pro inhibition IC50

SMILES: CC(C)C[C@H](NC(=O)c1cc2ccccc2[nH]1)C(=O)N[C@H](C=O)C[C@@H]1CCNC1=O [Compound A-1-c, N—((S)-4-methyl-1-oxo-1-(((S)-1-oxo-3-((S)-2-oxopyrrolidin-3-yl)propan-2-yl)amino)pentan-2-yl)-1H-indole-2-carboxamide]
- Liver Microsomal Stability (ER) Human, at 0.1 uM ([1]; compound at 0.1 uM, human liver microsomes): 0.45(0.1 uM)*
- Liver Microsomal Stability (ER) Human [1]: 0.12,
- AUC0-t [2]: 36700 ng·h/mL
- Cmax [2]: 13800 ng/mL
- Tmax [2]: 0.833 h
- bioavailability [2]: 31%
- half-life [2]: 4.84 h
- AUC0-t [3]: 2170 ng·h/mL
- Cmax [3]: 734 ng/mL
- Tmax [3]: 3 h
- bioavailability [3]: 8%
- half-life [3]: 1.07 h
- EC50 [4]: 300 nM
- Liver Microsomal Stability (ER) SD rat [5]: 0.05
- Liver Microsomal Stability (ER) Beagle dog [5]: 0.09
- Liver Microsomal Stability (ER) Monkey [5]: 0.14
- Liver Microsomal Stability (ER) Mouse [5]: 0.04

SMILES: CC(C)C[C@H](NC(=O)c1cc2ccccc2[nH]1)C(=O)N[C@@H](C[C@@H]1CCNC1=O)C(O)S(=O)(=O)[O-].[Na+] (stereo partly drawn) [Compound A-1-d, sodium (2S)-2-((S)-2-(1H-indole-2-carboxamido)-4-methylpentanamido)-1-hydroxy-3-((S)-2-oxopyrrolidin-3-yl)propane-1-sulfonate]
- Liver Microsomal Stability (ER) Human [1]: 0.08
- AUC0-t [2]: 95900 ng·h/mL
- Cmax [2]: 27800 ng/mL
- Tmax [2]: 2 h
- bioavailability [2]: > 83%
- half-life [2]: 2.73 h
- AUC0-t [3]: 2620 ng·h/mL
- Cmax [3]: 1610 ng/mL
- Tmax [3]: 0.5 h
- half-life [3]: 0.893 h
- EC50 [4]: 1060 nM
- EC50 [6]: 130 nM
- EC90 [6]: 280 nM
- EC50 [7]: 12 to 41 nM
- EC90 [7]: 12 to 41 nM
- EC50 [8]: 360 nM
- EC90 [8]: 410 nM
- Liver Microsomal Stability (ER) SD rat [5]: 0.12
- Liver Microsomal Stability (ER) Beagle dog [5]: 0.04
- Liver Microsomal Stability (ER) Mouse [5]: 0.10

SMILES: CC(C)C[C@H](NC(=O)c1cc2c(F)cccc2[nH]1)C(=O)N[C@@H](C[C@@H]1CCNC1=O)C(=O)CO [Compound A-3-e, (2S)-2-[(4-fluoro-1H-indol-2-yl)formamido]-N-[(2S)-4-hydroxy-3-oxo-1-[(3S)-2-oxopyrrolidin-3-yl]butan-2-yl]-4-methylpentanamide]
- Liver Microsomal Stability (ER) Human [1]: 0.11
- AUC0-t [3]: 261 ng·h/mL
- Cmax [3]: 131 ng/mL
- Tmax [3]: 0.25 h
- half-life [3]: 1.25 h
- IC50 [9]: 5.11 nM
- Liver Microsomal Stability (ER) SD rat [5]: 0.17
- Liver Microsomal Stability (ER) Beagle dog [5]: 0.05
- Liver Microsomal Stability (ER) Mouse [5]: 0.23

SMILES: Cc1cccc2[nH]c(C(=O)N[C@@H](CC(C)C)C(=O)N[C@H](C=O)C[C@@H]3CCNC3=O)cc12 [Compound A-4-a, 4-methyl-N—((S)-4-methyl-1-oxo-1-(((S)-1-oxo-3-((S)-2-oxopyrrolidin-3-yl)propan-2-yl)amino)pentan-2-yl)-1H-indole-2-carboxamide]
- Liver Microsomal Stability (ER) Human [1]: 0.21
- half-life [3]: 1 h
- EC50 [4]: 1130 nM
- IC50 [9]: 2.39 nM
- Liver Microsomal Stability (ER) SD rat [5]: 0.06
- Liver Microsomal Stability (ER) Beagle dog [5]: 0.22
- Liver Microsomal Stability (ER) Monkey [5]: 0.098
- Liver Microsomal Stability (ER) Mouse [5]: 0.13
